Test results from patent US20230085307A1, “PYRIDAZINONE COMPOUND AND HERBICIDE” (NISSAN CHEMICAL CORPORATION, priority 2019, published 2023).

How the values were obtained:
southern crabgrass [1] = experiment: Test Example 5: herbicidal effect by foliage application, plastic box (Table 20, symbol F); assay type: in vivo, southern crabgrass (Digitaria ciliaris); settings: foliage application, three weeks after application
Summary of the method: (§1)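 Foliar spray test: emulsion formulation diluted in water to a set application rate, sprayed onto 14-day-old plants raised in diluvial soil at 25° C to 30° C under glass. Both herbicidal effect and crop effect rated visually three weeks later.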

rice flat sedge = experiment: Test Example 3: herbicidal effect by foliage application, Wagner pot (Table 18, symbol E); assay type: in vivo, rice flat sedge (Cyperus iria)
Summary of the method: (§2)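 Plants were sown in alluvial soil held under 0.1–0.5 cm standing water and grown 14 days in a greenhouse at 25–30 °C. An emulsifiable formulation, water-diluted to the set dose, was then sprayed onto the foliage, and effects were scored three weeks later using previously defined criteria.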

southern crabgrass [2] = experiment: Test Example 4: herbicidal effect by soil treatment (Table 19, symbol F); assay type: in vivo, southern crabgrass (Digitaria ciliaris)
Summary of the method: (§3)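 Herbicidal effect was rated 3 weeks after treatment, using the scoring criteria of an earlier test. The compound, formulated as an emulsion and diluted in water to a set herbicide amount, had been sprayed uniformly on soil over freshly sown seeds. Growth took place in a greenhouse at 25° C. to 30° C.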

velvetleaf [3] = experiment: Test Example 4: herbicidal effect by soil treatment (Table 19, symbol M); assay type: in vivo, velvetleaf (Abutilon theophrasti)
Summary of the method: as §3

redroot pigweed [4] = experiment: Test Example 5: herbicidal effect by foliage application, plastic box (Table 20, symbol N); assay type: in vivo, redroot pigweed (Amaranthus retroflexus); settings: foliage application, three weeks after application
Summary of the method: as §1

barnyard grass [5] = experiment: Test Example 3: herbicidal effect by foliage application, Wagner pot (Table 18, symbol H); assay type: in vivo, barnyard grass (Echinochloa crus-galli)
Summary of the method: as §2

late watergrass = experiment: Test Example 1: herbicidal activity, application before weed generation under submerged conditions (Table 16, symbol A); assay type: in vivo, late watergrass (Echinochloa oryzicola)
Summary of the method: (§4)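 Alluvial soil was flooded to 4 cm depth, weed seeds were sown mixed and 2.5-leaf rice seedlings were transplanted. On sowing day, the compound's emulsion, diluted in water to a set dose, was applied to the water surface. Plants grew at 25–30 °C and were scored 0–5 after three weeks.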

Japanese bulrush = experiment: Test Example 1: herbicidal activity, application before weed generation under submerged conditions (Table 16, symbol B); assay type: in vivo, Japanese bulrush (Schoenoplectus juncoides)
Summary of the method: as §4

barnyard grass [6] = experiment: Test Example 4: herbicidal effect by soil treatment (Table 19, symbol H); assay type: in vivo, barnyard grass (Echinochloa crus-galli)
Summary of the method: as §3

Chinese sprangletop = experiment: Test Example 3: herbicidal effect by foliage application, Wagner pot (Table 18, symbol D); assay type: in vivo, chinese sprangletop (Leptochloa chinensis)
Summary of the method: as §2

green foxtail [7] = experiment: Test Example 4: herbicidal effect by soil treatment (Table 19, symbol G); assay type: in vivo, green foxtail (Setaria viridis)
Summary of the method: as §3

redroot pigweed [8] = experiment: Test Example 4: herbicidal effect by soil treatment (Table 19, symbol N); assay type: in vivo, redroot pigweed (Amaranthus retroflexus)
Summary of the method: as §3

barnyard grass [9] = experiment: Test Example 5: herbicidal effect by foliage application, plastic box (Table 20, symbol H); assay type: in vivo, barnyard grass (Echinochloa crus-galli); settings: foliage application, three weeks after application
Summary of the method: as §1

lambsquarters [10] = experiment: Test Example 5: herbicidal effect by foliage application, plastic box (Table 20, symbol O); assay type: in vivo, lambsquarters (Chenopodium album); settings: foliage application, three weeks after application
Summary of the method: as §1

velvetleaf [11] = experiment: Test Example 5: herbicidal effect by foliage application, plastic box (Table 20, symbol M); assay type: in vivo, velvetleaf (Abutilon theophrasti); settings: foliage application, three weeks after application
Summary of the method: as §1

green foxtail [12] = experiment: Test Example 5: herbicidal effect by foliage application, plastic box (Table 20, symbol G); assay type: in vivo, green foxtail (Setaria viridis); settings: foliage application, three weeks after application
Summary of the method: as §1

lambsquarters [13] = experiment: Test Example 4: herbicidal effect by soil treatment (Table 19, symbol O); assay type: in vivo, lambsquarters (Chenopodium album)
Summary of the method: as §3

oval-leafed pondweed = experiment: Test Example 1: herbicidal activity, application before weed generation under submerged conditions (Table 16, symbol C); assay type: in vivo, oval-leafed pondweed (Monochoria vaginalis)
Summary of the method: as §4

[14] = amount of applied herbicide 320 g/ha
[15] = amount of applied herbicide 403 g/ha

Cc1nn(C)c(=O)c(-c2c(-c3ccc(OCCS(C)(=O)=O)cc3)sc3ccc(F)cc23)c1O [2-444]
F: southern crabgrass, herbicidal effect grade (southern crabgrass [1]; 320 g/ha): 5 (Herbicidal rate of 90% or more (almost completely withered))
herbicidal effect on E: rice flat sedge (rice flat sedge; [14]): 5 (Herbicidal rate of 90% or more (almost completely withered))
herbicidal effect, F: southern crabgrass (southern crabgrass [2]; [14]): 5 (Herbicidal rate of 90% or more (almost completely withered))
herbicidal effect, M: velvetleaf (velvetleaf [3]; [14]): 3 (Herbicidal rate of 40% or more and less than 70%)
N: redroot pigweed, herbicidal effect grade (redroot pigweed [4]; 320 g/ha): 5 (Herbicidal rate of 90% or more (almost completely withered))
herbicidal effect on H: barnyard grass (barnyard grass [5]; [14]): 5 (Herbicidal rate of 90% or more (almost completely withered))
Herbicidal effect, A: late watergrass (late watergrass; [14]): 3 (Herbicidal rate of 40% or more and less than 70%)
Herbicidal effect, B: Japanese bulrush (Japanese bulrush; [14]): 0 (Herbicidal rate of 5% or less (almost no effect))
herbicidal effect, H: barnyard grass (barnyard grass [6]; [14]): 4 (Herbicidal rate of 70% or more and less than 90%)
herbicidal effect on D: Chinese sprangletop (Chinese sprangletop; [14]): 4 (Herbicidal rate of 70% or more and less than 90%)
herbicidal effect, G: green foxtail (green foxtail [7]; [14]): 5 (Herbicidal rate of 90% or more (almost completely withered))
herbicidal effect, N: redroot pigweed (redroot pigweed [8]; [14]): 5 (Herbicidal rate of 90% or more (almost completely withered))
H: barnyard grass, herbicidal effect grade (barnyard grass [9]; 320 g/ha): 5 (Herbicidal rate of 90% or more (almost completely withered))
O: lambsquarters, herbicidal effect grade (lambsquarters [10]; 320 g/ha): 5 (Herbicidal rate of 90% or more (almost completely withered))
M: velvetleaf, herbicidal effect grade (velvetleaf [11]; 320 g/ha): 5 (Herbicidal rate of 90% or more (almost completely withered))
G: green foxtail, herbicidal effect grade (green foxtail [12]; 320 g/ha): 5 (Herbicidal rate of 90% or more (almost completely withered))
herbicidal effect, O: lambsquarters (lambsquarters [13]; [14]): 5 (Herbicidal rate of 90% or more (almost completely withered))
Herbicidal effect, C: oval-leafed pondweed (oval-leafed pondweed; [14]): 0 (Herbicidal rate of 5% or less (almost no effect))

CON=C(C)CSc1ccc(-c2sc3ccc(F)cc3c2-c2c(O)c(C)nn(C)c2=O)cc1 [2-451]
F: southern crabgrass, herbicidal effect grade (southern crabgrass [1]; 320 g/ha): 4 (Herbicidal rate of 70% or more and less than 90%)
herbicidal effect on E: rice flat sedge (rice flat sedge; [14]): 5 (Herbicidal rate of 90% or more (almost completely withered))
herbicidal effect, F: southern crabgrass (southern crabgrass [2]; [14]): 0 (Herbicidal rate of 5% or less (almost no effect))
herbicidal effect, M: velvetleaf (velvetleaf [3]; [14]): 3 (Herbicidal rate of 40% or more and less than 70%)
N: redroot pigweed, herbicidal effect grade (redroot pigweed [4]; 320 g/ha): 5 (Herbicidal rate of 90% or more (almost completely withered))
herbicidal effect on H: barnyard grass (barnyard grass [5]; [14]): 5 (Herbicidal rate of 90% or more (almost completely withered))
Herbicidal effect, A: late watergrass (late watergrass; [14]): 2 (Herbicidal rate of 20% or more and less than 40%)
Herbicidal effect, B: Japanese bulrush (Japanese bulrush; [14]): 0 (Herbicidal rate of 5% or less (almost no effect))
herbicidal effect, H: barnyard grass (barnyard grass [6]; [14]): 0 (Herbicidal rate of 5% or less (almost no effect))
herbicidal effect on D: Chinese sprangletop (Chinese sprangletop; [14]): 3 (Herbicidal rate of 40% or more and less than 70%)
herbicidal effect, G: green foxtail (green foxtail [7]; [14]): 0 (Herbicidal rate of 5% or less (almost no effect))
herbicidal effect, N: redroot pigweed (redroot pigweed [8]; [14]): 5 (Herbicidal rate of 90% or more (almost completely withered))
H: barnyard grass, herbicidal effect grade (barnyard grass [9]; 320 g/ha): 5 (Herbicidal rate of 90% or more (almost completely withered))
O: lambsquarters, herbicidal effect grade (lambsquarters [10]; 320 g/ha): 5 (Herbicidal rate of 90% or more (almost completely withered))
M: velvetleaf, herbicidal effect grade (velvetleaf [11]; 320 g/ha): 5 (Herbicidal rate of 90% or more (almost completely withered))
G: green foxtail, herbicidal effect grade (green foxtail [12]; 320 g/ha): 5 (Herbicidal rate of 90% or more (almost completely withered))
herbicidal effect, O: lambsquarters (lambsquarters [13]; [14]): 4 (Herbicidal rate of 70% or more and less than 90%)
Herbicidal effect, C: oval-leafed pondweed (oval-leafed pondweed; [14]): 0 (Herbicidal rate of 5% or less (almost no effect))

CC[S+]([O-])c1cccc(-c2sc3ccc(F)cc3c2-c2c(O)c(C)nn(C)c2=O)c1 (stereo not drawn) [2-460]
F: southern crabgrass, herbicidal effect grade (southern crabgrass [1]; 403 g/ha): 0 (Herbicidal rate of 5% or less (almost no effect))
herbicidal effect on E: rice flat sedge (rice flat sedge; [15]): 0 (Herbicidal rate of 5% or less (almost no effect))
herbicidal effect, F: southern crabgrass (southern crabgrass [2]; [15]): 0 (Herbicidal rate of 5% or less (almost no effect))
herbicidal effect, M: velvetleaf (velvetleaf [3]; [15]): 0 (Herbicidal rate of 5% or less (almost no effect))
N: redroot pigweed, herbicidal effect grade (redroot pigweed [4]; 403 g/ha): 3 (Herbicidal rate of 40% or more and less than 70%)
herbicidal effect on H: barnyard grass (barnyard grass [5]; [15]): 4 (Herbicidal rate of 70% or more and less than 90%)
Herbicidal effect, A: late watergrass (late watergrass; [15]): 3 (Herbicidal rate of 40% or more and less than 70%)
Herbicidal effect, B: Japanese bulrush (Japanese bulrush; [15]): 0 (Herbicidal rate of 5% or less (almost no effect))
herbicidal effect, H: barnyard grass (barnyard grass [6]; [15]): 0 (Herbicidal rate of 5% or less (almost no effect))
herbicidal effect on D: Chinese sprangletop (Chinese sprangletop; [15]): 0 (Herbicidal rate of 5% or less (almost no effect))
herbicidal effect, G: green foxtail (green foxtail [7]; [15]): 0 (Herbicidal rate of 5% or less (almost no effect))
herbicidal effect, N: redroot pigweed (redroot pigweed [8]; [15]): 3 (Herbicidal rate of 40% or more and less than 70%)
H: barnyard grass, herbicidal effect grade (barnyard grass [9]; 403 g/ha): 3 (Herbicidal rate of 40% or more and less than 70%)
O: lambsquarters, herbicidal effect grade (lambsquarters [10]; 403 g/ha): 3 (Herbicidal rate of 40% or more and less than 70%)
M: velvetleaf, herbicidal effect grade (velvetleaf [11]; 403 g/ha): 3 (Herbicidal rate of 40% or more and less than 70%)
G: green foxtail, herbicidal effect grade (green foxtail [12]; 403 g/ha): 2 (Herbicidal rate of 20% or more and less than 40%)
herbicidal effect, O: lambsquarters (lambsquarters [13]; [15]): 3 (Herbicidal rate of 40% or more and less than 70%)
Herbicidal effect, C: oval-leafed pondweed (oval-leafed pondweed; [15]): 0 (Herbicidal rate of 5% or less (almost no effect))

Cc1nn(C)c(=O)c(-c2c(-c3ccoc3)sc3ccc(F)cc23)c1O [2-461]
F: southern crabgrass, herbicidal effect grade (southern crabgrass [1]; 320 g/ha): 2 (Herbicidal rate of 20% or more and less than 40%)
herbicidal effect on E: rice flat sedge (rice flat sedge; [14]): 4 (Herbicidal rate of 70% or more and less than 90%)
herbicidal effect, F: southern crabgrass (southern crabgrass [2]; [14]): 0 (Herbicidal rate of 5% or less (almost no effect))
herbicidal effect, M: velvetleaf (velvetleaf [3]; [14]): 0 (Herbicidal rate of 5% or less (almost no effect))
N: redroot pigweed, herbicidal effect grade (redroot pigweed [4]; 320 g/ha): 4 (Herbicidal rate of 70% or more and less than 90%)
herbicidal effect on H: barnyard grass (barnyard grass [5]; [14]): 4 (Herbicidal rate of 70% or more and less than 90%)
Herbicidal effect, A: late watergrass (late watergrass; [14]): 3 (Herbicidal rate of 40% or more and less than 70%)
Herbicidal effect, B: Japanese bulrush (Japanese bulrush; [14]): 0 (Herbicidal rate of 5% or less (almost no effect))
herbicidal effect, H: barnyard grass (barnyard grass [6]; [14]): 0 (Herbicidal rate of 5% or less (almost no effect))
herbicidal effect on D: Chinese sprangletop (Chinese sprangletop; [14]): 0 (Herbicidal rate of 5% or less (almost no effect))
herbicidal effect, G: green foxtail (green foxtail [7]; [14]): 0 (Herbicidal rate of 5% or less (almost no effect))
herbicidal effect, N: redroot pigweed (redroot pigweed [8]; [14]): 2 (Herbicidal rate of 20% or more and less than 40%)
H: barnyard grass, herbicidal effect grade (barnyard grass [9]; 320 g/ha): 3 (Herbicidal rate of 40% or more and less than 70%)
O: lambsquarters, herbicidal effect grade (lambsquarters [10]; 320 g/ha): 3 (Herbicidal rate of 40% or more and less than 70%)
M: velvetleaf, herbicidal effect grade (velvetleaf [11]; 320 g/ha): 4 (Herbicidal rate of 70% or more and less than 90%)
G: green foxtail, herbicidal effect grade (green foxtail [12]; 320 g/ha): 3 (Herbicidal rate of 40% or more and less than 70%)
herbicidal effect, O: lambsquarters (lambsquarters [13]; [14]): 1 (Herbicidal rate of 5% or more and less than 20%)
Herbicidal effect, C: oval-leafed pondweed (oval-leafed pondweed; [14]): 0 (Herbicidal rate of 5% or less (almost no effect))
